Source: ChEMBL document CHEMBL4196088, “Induction of cell killing and autophagy by amphiphilic pyrrolidine derivatives on human pancreatic cancer cells” (Eur J Med Chem, 2018)
pIC50: −log10 of the molar value.

Columns and labels:
[1] = tested on: SK-BR-3; test: Growth inhibition of human SKBR3 cells after 72 hrs; assay type: functional, cell-based; settings: SK-BR-3, 72 h
[2] = tested on: BXPC-3; test: Induction of apoptosis in human BxPC3 cells assessed as accumulation at sub-G0/G1 phase at 20 uM after 24 hrs by propidium iodide staining based flow cytometry (reference value: 2.3%); assay type: functional
[3] = tested on: BXPC-3; test: Induction of apoptosis in human BxPC3 cells assessed as accumulation at sub-G0/G1 phase at 20 uM after 48 hrs by propidium iodide staining based flow cytometry (reference value: 2.8%); assay type: functional
[4] = tested on: BXPC-3; test: Induction of apoptosis in human BxPC3 cells assessed as accumulation at sub-G0/G1 phase at 20 uM after 72 hrs by propidium iodide staining based flow cytometry (reference value: 3.4%); assay type: functional
[5] = tested on: BXPC-3; test: Induction of apoptosis in human BxPC3 cells assessed as accumulation at sub-G0/G1 phase harboring pSFFV-Bcl-XL at 20 uM after 24 hrs by propidium iodide staining based flow cytometry (reference value: 1.2%); assay type: functional
[6] = tested on: BXPC-3; test: Induction of apoptosis in human BxPC3 cells assessed as accumulation at sub-G0/G1 phase harboring pSFFV-Bcl-XL at 20 uM after 48 hrs by propidium iodide staining based flow cytometry (reference value: 1.3%); assay type: functional
[7] = tested on: BXPC-3; test: Induction of apoptosis in human BxPC3 cells assessed as accumulation at sub-G0/G1 phase harboring pSFFV-Bcl-XL at 20 uM after 72 hrs by propidium iodide staining based flow cytometry (reference value: 1.3%); assay type: functional
[8] = tested on: PANC-1; test: Induction of apoptosis in human PANC1 cells assessed as accumulation at sub-G0/G1 phase at 20 uM after 24 hrs by propidium iodide staining based flow cytometry (reference value: 0.6 to 0.7%); assay type: functional
[9] = tested on: PANC-1; test: Induction of apoptosis in human PANC1 cells assessed as accumulation at sub-G0/G1 phase at 20 uM after 48 hrs by propidium iodide staining based flow cytometry (reference value: 0.2 to 2.9%); assay type: functional
[10] = tested on: PANC-1; test: Induction of apoptosis in human PANC1 cells assessed as accumulation at sub-G0/G1 phase at 20 uM after 72 hrs by propidium iodide staining based flow cytometry (reference value: 1.6 to 3.2%); assay type: functional
[11] = tested on: PK9; test: Induction of apoptosis in human PK9 cells assessed as accumulation at sub-G0/G1 phase at 20 uM after 24 hrs by propidium iodide staining based flow cytometry (reference value: 2.2%); assay type: functional
[12] = tested on: PK9; test: Induction of apoptosis in human PK9 cells assessed as accumulation at sub-G0/G1 phase at 20 uM after 48 hrs by propidium iodide staining based flow cytometry (reference value: 3.8%); assay type: functional
[13] = tested on: PK9; test: Induction of apoptosis in human PK9 cells assessed as accumulation at sub-G0/G1 phase at 20 uM after 72 hrs by propidium iodide staining based flow cytometry (reference value: 4%); assay type: functional
[14] = Induction of apoptosis in HPNE cells assessed as accumulation at sub-G0/G1 phase at 20 uM after 24 hrs by propidium iodide staining based flow cytometry (reference value: 0.6%); assay type: cell-based; settings: human
[15] = Induction of apoptosis in HPNE cells assessed as accumulation at sub-G0/G1 phase at 20 uM after 48 hrs by propidium iodide staining based flow cytometry (reference value: 0.7%); assay type: cell-based; settings: human
[16] = Induction of apoptosis in HPNE cells assessed as accumulation at sub-G0/G1 phase at 20 uM after 72 hrs by propidium iodide staining based flow cytometry (reference value: 6.6%); assay type: cell-based; settings: human
[17] = tested on: PANC-1; test: Induction of apoptosis in human PANC1 cells assessed as accumulation at sub-G0/G1 phase at 10 uM after 24 hrs by propidium iodide staining based flow cytometry (reference value: 0.6 to 0.7%); assay type: functional
[18] = tested on: PANC-1; test: Induction of apoptosis in human PANC1 cells assessed as accumulation at sub-G0/G1 phase at 10 uM after 48 hrs by propidium iodide staining based flow cytometry (reference value: 0.2 to 2.9%); assay type: functional
[19] = tested on: PANC-1; test: Induction of apoptosis in human PANC1 cells assessed as accumulation at sub-G0/G1 phase at 10 uM after 72 hrs by propidium iodide staining based flow cytometry (reference value: 1.6 to 3.2%); assay type: functional
[20] = tested on: BXPC-3; test: Induction of apoptosis in human BxPC3 cells assessed as accumulation at sub-G0/G1 phase at 10 uM after 24 hrs by propidium iodide staining based flow cytometry (reference value: 1.8%); assay type: functional
[21] = tested on: BXPC-3; test: Induction of apoptosis in human BxPC3 cells assessed as accumulation at sub-G0/G1 phase at 10 uM after 48 hrs by propidium iodide staining based flow cytometry (reference value: 2.8%); assay type: functional
[22] = tested on: BXPC-3; test: Induction of apoptosis in human BxPC3 cells assessed as accumulation at sub-G0/G1 phase at 10 uM after 72 hrs by propidium iodide staining based flow cytometry (reference value: 3.4%); assay type: functional
[23] = tested on: BXPC-3; test: Induction of apoptosis in human BxPC3 cells harboring pSFFV-Bcl-XL assessed as accumulation at sub-G0/G1 phase at 10 uM after 24 hrs by propidium iodide staining based flow cytometry (reference value: 1.5%); assay type: functional
[24] = tested on: BXPC-3; test: Induction of apoptosis in human BxPC3 cells harboring pSFFV-Bcl-XL assessed as accumulation at sub-G0/G1 phase at 10 uM after 48 hrs by propidium iodide staining based flow cytometry (reference value: 1.9%); assay type: functional
[25] = tested on: BXPC-3; test: Induction of apoptosis in human BxPC3 cells harboring pSFFV-Bcl-XL assessed as accumulation at sub-G0/G1 phase at 10 uM after 72 hrs by propidium iodide staining based flow cytometry (reference value: 2%); assay type: functional
[26] = tested on: PK9; test: Induction of apoptosis in human PK9 cells assessed as accumulation at sub-G0/G1 phase at 10 uM after 24 hrs by propidium iodide staining based flow cytometry (reference value: 2.2%); assay type: functional
[27] = tested on: PK9; test: Induction of apoptosis in human PK9 cells assessed as accumulation at sub-G0/G1 phase at 10 uM after 48 hrs by propidium iodide staining based flow cytometry (reference value: 3.8%); assay type: functional
[28] = tested on: PK9; test: Induction of apoptosis in human PK9 cells assessed as accumulation at sub-G0/G1 phase at 10 uM after 72 hrs by propidium iodide staining based flow cytometry (reference value: 4%); assay type: functional
[29] = Induction of apoptosis in HPNE cells assessed as accumulation at sub-G0/G1 phase at 10 uM after 24 hrs by propidium iodide staining based flow cytometry (reference value: 0.6%); assay type: cell-based; settings: human
[30] = Induction of apoptosis in HPNE cells assessed as accumulation at sub-G0/G1 phase at 10 uM after 48 hrs by propidium iodide staining based flow cytometry (reference value: 0.7%); assay type: cell-based; settings: human
[31] = Induction of apoptosis in HPNE cells assessed as accumulation at sub-G0/G1 phase at 10 uM after 72 hrs by propidium iodide staining based flow cytometry (reference value: 6.6%); assay type: cell-based; settings: human
[32] = tested on: BXPC-3; test: Growth inhibition of human BxPC3 cells after 72 hrs by XTT assay; assay type: functional, cell-based; settings: BXPC-3, 72 h
[33] = tested on: PANC-1; test: Growth inhibition of human PANC1 cells after 72 hrs by XTT assay; assay type: functional, cell-based; settings: PANC-1, 72 h
[34] = tested on: MIA PaCa-2; test: Growth inhibition of human MIAPaCa2 cells after 72 hrs by MTT assay; assay type: functional, cell-based; settings: MIA PaCa-2, 72 h
[35] = tested on: PK9; test: Growth inhibition of human PK9 cells after 72 hrs by MTT assay; assay type: functional, cell-based; settings: PK9, 72 h
[36] = tested on: HeLa; test: Growth inhibition of human HeLa cells after 72 hrs; assay type: functional, cell-based
[37] = tested on: Fibroblast; test: Induction of apoptosis in human primary fibroblasts at 20 uM after 24 hrs by propidium iodide staining based flow cytometry (reference value: 4.8%); assay type: cell-based
[38] = tested on: Fibroblast; test: Induction of apoptosis in human primary fibroblasts at 20 uM after 48 hrs by propidium iodide staining based flow cytometry (reference value: 6.1%); assay type: cell-based
[39] = tested on: Fibroblast; test: Induction of apoptosis in human primary fibroblasts at 20 uM after 72 hrs by propidium iodide staining based flow cytometry (reference value: 6.7%); assay type: cell-based
[40] = tested on: Fibroblast; test: Induction of apoptosis in human primary fibroblasts assessed as accumulation at sub-G0/G1 phase at 10 uM after 24 hrs by propidium iodide staining based flow cytometry (reference value: 4.8%); assay type: cell-based
[41] = tested on: Fibroblast; test: Induction of apoptosis in human primary fibroblasts assessed as accumulation at sub-G0/G1 phase at 10 uM after 48 hrs by propidium iodide staining based flow cytometry (reference value: 6.1%); assay type: cell-based
[42] = tested on: Fibroblast; test: Induction of apoptosis in human primary fibroblasts assessed as accumulation at sub-G0/G1 phase at 10 uM after 72 hrs by propidium iodide staining based flow cytometry (reference value: 6.7%); assay type: cell-based

For `CCCCCCCCCCCCCCCCOC[C@H]1NC[C@H](O)[C@@H]1O`, the pIC50 [1] was 4.30, the Activity [2] was 7.1% and the Activity [3] was 16.9%. For the same compound, the Activity [4] was 21.7%, the Activity [5] was 4.4% and the Activity [6] was 4.8%. The Activity [7] was 7.6%, the Activity [8] was 4.4% and the Activity [9] was 4.8%. The Activity [10] was 12.8%, the Activity [11] was 2.6% and the Activity [12] was 4.6%. The Activity [13] was 2.8%, the Activity [14] was 53.9% and the Activity [15] was 62.1%. It also gave an Activity [16] of 66.8%, an Activity [17] of 3.1% and an Activity [18] of 3.5%. It also gave an Activity [19] of 4.1%, an Activity [20] of 3.5% and an Activity [21] of 5.7%. The Activity [22] was 7.5%, the Activity [23] was 3.9% and the Activity [24] was 4.2%. It also gave an Activity [25] of 5.8%, an Activity [26] of 2% and an Activity [27] of 3.5%. It also gave an Activity [28] of 2.6%, an Activity [29] of 2.6% and an Activity [30] of 2.2%. The Activity [31] was 3.1%.
`CCCCCC/C=C/CCCCCCCCOC[C@H]1NC[C@H](O)[C@@H]1O` showed a pIC50 [1] of 5.00, a pIC50 [32] of under 4.00 and a pIC50 [33] of 4.10. The pIC50 [34] was under 4.00, the pIC50 [35] was under 4.00 and the Activity [2] was 9.5%. For the same compound, the Activity [3] was 19.6%, the Activity [4] was 21.5% and the Activity [5] was 4.9%. For the same compound, the Activity [6] was 5%, the Activity [7] was 3.8% and the Activity [8] was 7.9%. For the same compound, the Activity [9] was 23.4%, the Activity [10] was 33.7% and the Activity [11] was 2.2%. The Activity [12] was 4.3%, the Activity [13] was 5.7% and the Activity [14] was 46.9%. It also gave an Activity [15] of 65.7%, an Activity [16] of 70.3% and an Activity [17] of 5.7%. It also gave an Activity [18] of 9.1%, an Activity [19] of 6.4% and an Activity [20] of 5.3%. It also gave an Activity [21] of 7.3%, an Activity [22] of 7.8% and an Activity [23] of 4.3%. The Activity [24] was 1.9%, the Activity [25] was 3.8% and the Activity [26] was 3.4%. It also gave an Activity [27] of 3.8%, an Activity [28] of 2.7% and an Activity [29] of 3.4%. The Activity [30] was 2% and the Activity [31] was 2.5%.
`Cl.O[C@H]1CN[C@H](COCCCCCCCCC/C=C/c2ccc(-c3ccccc3)cc2)C1` gave a pIC50 [36] of 5.40, an Activity [2] of 12.7% and an Activity [3] of 59.3%. The Activity [4] was 72%, the Activity [5] was 7.3% and the Activity [6] was 11.4%. It also gave an Activity [7] of 49.7%, an Activity [8] of 17.6% and an Activity [9] of 38%. The Activity [10] was 66.2%, the Activity [11] was 35.1% and the Activity [12] was 77.4%. The Activity [13] was 84.9%, the Activity [37] was 17.2% and the Activity [38] was 21.7%. It also gave an Activity [39] of 33.7%, an Activity [14] of 83.1% and an Activity [15] of 93.5%. The Activity [16] was 98.3%, the Activity [17] was 8.8% and the Activity [18] was 23.2%. For the same compound, the Activity [19] was 56.2%, the Activity [20] was 22.1% and the Activity [21] was 34.6%. It also gave an Activity [22] of 59.3%, an Activity [23] of 2.6% and an Activity [24] of 10%. The Activity [25] was 15.7%, the Activity [26] was 9.6% and the Activity [27] was 30.4%. The Activity [28] was 39.4%, the Activity [40] was 9.5% and the Activity [41] was 11.7%. For the same compound, the Activity [42] was 22.1%, the Activity [29] was 80.6% and the Activity [30] was 83.5%. For the same compound, the Activity [31] was 93.4%.
